Values joined by “and” are separate entries in the source; they are usually repeats but may differ in a detail not shown here. Identical values can stand only once. “Also recorded” adds a separate entry of the source. Marks after values point to notes of the source that are not given here.
Experiments:
Caco-2 cells = conditions: cited from earlier work
Caco-2 cell monolayer = assay: Caco-2 monolayer transport (bioavailability) study, AB and BA directions; format: in vitro ADME, Homo sapiens; conditions: for reduction in concentration on the apical (donor) side: 0 to 180 min; for TE (%) transport efficiency: after 180 min
Procedure: (§1) A reversed phase C18 column (Luna 5 μm C18(2) 100 Å, LC Column 250 × 4.6 mm, Phenomenex) was used to separate the polyphenols at a flow rate of 0.7 mL/min with an injection volume of 60 µL. The detection was carried out at 520 nm for anthocyanins (M3G, D3G and Pet3G), at 328 nm for CA, at 356 nm for flavonols (Q3G, K3Gal and K3G) and at 280 nm for GA and SA. The mobile phases were (A) acetonitrile 100% and (B) water 0.1% trifluoroacetic acid (v/v). The gradient was programmed as follows: 10% A 0 min, 10–80% A (0–20 min), 80–100% A (20–25 min), 100% A (25–30 min); 10% A (30–35 min) and 10% A (35–40 min). Every polyphenol was quantified using the corresponding reference standard calibration curve. Each of the quantified phenolic compound concentration was expressed as mg/mL
(§2) For the transport experiment Caco-2 cells were cultured at a density of 4 × 10^4 cells/cm^2 in Transwell inserts (12 mm i.d., 1.12 cm^2 growth area, 0.4 µm mean pore size polycarbonate membranes, Corning Inc., Milwaukee, WI, USA) placed in 12-well plates. Caco-2 cells were grown in DMEM in an incubator at 37 °C in a humidified atmosphere containing 5% CO2.
(§3) Bioavailability studies were performed in triplicate after 21 days of cell growth. Only inserts with stable TEER values higher than ≥300 Ω cm^2 were considered acceptable to perform the bioavailability study. For that purpose, DMEM media was removed, the monolayer was washed with PBS and HBSS was supplied to the cells.
(§4) Likewise, the GSE stock solution was diluted in HBSS medium to prepare GSE solutions S1 and S2. GSE solutions S1 and S2 had concentrations of 15 mg/mL and 22 mg/mL, respectively. These concentrations were established considering previous studies with grape pomace extracts that concluded that intestinal concentrations of 1–2% (w/v) show potential bioactivities and are safe to be used as a food ingredient.
(§5) The apical side represents the intestinal lumen and the basolateral side represents the bloodstream. Each sample (100 µL) was immediately acidified with 1M HCl to a final concentration of 0.007 M and subsequently frozen at −20 °C until analysis by HPLC (according to the method described in Section 2.5). Each experiment was carried out on 3 individual wells. The transport efficiency (TE) percentage was calculated according to Equation (2):Transport efficiency (%) = (C/C0) × 100(2) where, C is the polyphenol concentration at the acceptor side over time and C0 is the initial concentration at the donor side. TE values were calculated for the nine polyphenols identified in the grape skin extract.
(§6) The apparent permeability coefficient (Papp) of the polyphenols in GSE was calculated for apical to basolateral side (AB) and basolateral to apical side (BA) flux studies according to Equation (3):Papp (cm/s) = (dQ/dt) × (VR/AC0)(3) where, dQ/dt is the permeability rate which means the steady-state linear rate of change of concentration (mg/L) per second (s) at the acceptor side; A is the surface area of the cell monolayer (1.12 cm^2). C0 is the initial concentration at the donor side (mg/L) at t = 0 s and VR is the volume of the solution of the acceptor side (mL).
(§7) The efflux ratio (ER) of the polyphenol was assessed by calculating the Equation (4):ER = Papp (BA)/Papp (AB)(4) where, Papp (BA) is the apparent permeability coefficient of the polyphenol from basolateral to apical side and Papp (AB) is the apparent permeability coefficient from apical to basolateral side. ER is a measure of the relative contributions of active and passive transport to bi-direction flux across the cell monolayer.

[1] = as above; format: in vitro ADME, Homo sapiens; conditions: human
Procedure: as §1, §2, §3, §4, §5, §6, §7

[2] = AB experiment, S2 (22 mg/mL GSE)
[3] = AB experiment, acceptor side, S2 (22 mg/mL GSE)
[4] = AB experiment, donor side, S1 (15 mg/mL GSE)
[5] = AB experiment, donor side, S2 (22 mg/mL GSE)
[6] = AB experiments, basolateral side
[7] = BA experiment, S2 (22 mg/mL GSE)
[8] = BA experiment, acceptor side, S1 (15 mg/mL GSE)
[9] = BA experiment, acceptor side, S2 (22 mg/mL GSE)
[10] = BA experiment, donor side, S1 (15 mg/mL GSE)
[11] = BA experiment, donor side, S2 (22 mg/mL GSE)

COc1cc(-c2[o+]c3cc(O)cc(O)c3cc2O[C@@H]2O[C@H](CO)[C@@H](O)[C@H](O)[C@H]2O)cc(OC)c1O [M3G, malvidin-3-O-glucoside]
transepithelial transport M3G efficiency (Caco-2 cells; Caco-2 cells, rabbiteye blueberry extract, depending on initial extract concentration, after 2 h): 6.93–7.31%
M3G transport efficiency (Caco-2 cells; after 240 min): 0.35%
reduction in concentration on the apical (donor) side (Caco-2 cell monolayer; AB experiment, S1 (15 mg/mL GSE)): 75 ± 2%
reduction in concentration on the apical (donor) side (Caco-2 cell monolayer; [2]): 58 ± 3%
TE (%) transport efficiency (Caco-2 cell monolayer; [2]): 1.08 ± 0.01%
Basolateral Side 180 min (Caco-2 cell monolayer; AB experiment, acceptor side, S1 (15 mg/mL GSE)): undetectable
Basolateral Side 75 min (Caco-2 cell monolayer; [3]): 0.12 ± 0.01 ^b mg/L
Basolateral Side 90 min (Caco-2 cell monolayer; [3]): 0.13 ± 0.01 ^c,d mg/L
Basolateral Side 115 min (Caco-2 cell monolayer; [3]): 0.14 ± 0.01 ^d,c mg/L
Basolateral Side 180 min (Caco-2 cell monolayer; [3]): 0.15 ± 0.01 ^c mg/L
Apical Side 0 min (Caco-2 cell monolayer; [4]): 6.1 ± 0.3 mg/L and 6.1 ± 0.3 ^a mg/L
Apical Side 75 min (Caco-2 cell monolayer; [4]): 4.5 ± 0.2 ^b mg/L
Apical Side 90 min (Caco-2 cell monolayer; [4]): 3.2 ± 0.1 ^c mg/L
Apical Side 115 min (Caco-2 cell monolayer; [4]): 2.26 ± 0.06 ^d mg/L
Apical Side 180 min (Caco-2 cell monolayer; [4]): 1.53 ± 0.04 mg/L and 1.53 ± 0.04 ^c mg/L
Apical Side 0 min (Caco-2 cell monolayer; [5]): 14 ± 1 ^a mg/L
Apical Side 75 min (Caco-2 cell monolayer; [5]): 11.6 ± 0.9 ^b mg/L
Apical Side 90 min (Caco-2 cell monolayer; [5]): 9.2 ± 0.9 ^c mg/L
Apical Side 115 min (Caco-2 cell monolayer; [5]): 7.2 ± 0.9 ^d mg/L
Apical Side 180 min (Caco-2 cell monolayer; [5]): 6.0 ± 0.8 mg/L and 6.0 ± 0.8 ^d mg/L
detection at the acceptor side (Caco-2 cell monolayer; [6]): detected
TE (%) transport efficiency (Caco-2 cell monolayer; [7]): 1.73 ± 0.04%
Apical Side 75 min (Caco-2 cell monolayer; [8]): 0.19 ± 0.02 ^a,b mg/L
Apical Side 90 min (Caco-2 cell monolayer; [8]): 0.23 ± 0.02 ^b,c mg/L
Apical Side 115 min (Caco-2 cell monolayer; [8]): 0.28 ± 0.02 ^c mg/L
Apical Side 180 min (Caco-2 cell monolayer; [8]): 0.33 ± 0.02 ^c mg/L
Apical Side 75 min (Caco-2 cell monolayer; [9]): 0.18 ± 0.01 ^b mg/L
Apical Side 90 min (Caco-2 cell monolayer; [9]): 0.22 ± 0.01 ^c mg/L
Apical Side 115 min (Caco-2 cell monolayer; [9]): 0.26 ± 0.01 ^d mg/L
Apical Side 180 min (Caco-2 cell monolayer; [9]): 0.30 ± 0.01 ^c mg/L
Basolateral Side 0 min (Caco-2 cell monolayer; [10]): 10.4 ± 0.7 ^a mg/L
Basolateral Side 75 min (Caco-2 cell monolayer; [10]): 9.7 ± 0.6 ^b mg/L
Basolateral Side 90 min (Caco-2 cell monolayer; [10]): 9.1 ± 0.6 ^c mg/L
Basolateral Side 115 min (Caco-2 cell monolayer; [10]): 8.5 ± 0.6 ^d mg/L
Basolateral Side 180 min (Caco-2 cell monolayer; [10]): 8.0 ± 0.6 ^c mg/L
Basolateral Side 0 min (Caco-2 cell monolayer; [11]): 17.5 ± 0.4 ^a mg/L
Basolateral Side 75 min (Caco-2 cell monolayer; [11]): 16.4 ± 0.4 ^b mg/L
Basolateral Side 90 min (Caco-2 cell monolayer; [11]): 15.4 ± 0.3 ^c mg/L
Basolateral Side 115 min (Caco-2 cell monolayer; [11]): 14.5 ± 0.3 ^c,d mg/L
Basolateral Side 180 min (Caco-2 cell monolayer; [11]): 13.7 ± 0.2 ^c mg/L
detection at the acceptor side (Caco-2 cell monolayer; BA experiments, apical side): detected
efflux ratio at 180 min, 22 mg/mL ([1]; Caco-2, Papp (BA)/Papp (AB), S2 (22 mg/mL GSE), read-out: ER (efflux ratio)): > 1
Papp A→B at 180 min, 22 mg/mL ([1]; Caco-2, apical to basolateral, S2 (22 mg/mL GSE)): 15 ± 1 ×10⁻⁶ cm/s
Papp B→A at 180 min, 15 mg/mL ([1]; Caco-2, basolateral to apical, S1 (15 mg/mL GSE)): 33 ± 2 ×10⁻⁶ cm/s
Papp B→A at 180 min, 22 mg/mL ([1]; Caco-2, basolateral to apical, S2 (22 mg/mL GSE)): 18 ± 1 ×10⁻⁶ cm/s

O=c1c(O[C@@H]2O[C@H](CO)[C@@H](O)[C@H](O)[C@H]2O)c(-c2ccc(O)c(O)c2)oc2cc(O)cc(O)c12 [Q3G, quercetin-3-glucoside]
Apical Side 0 min (Caco-2 cell monolayer; [4]): 0.23 ± 0.01 ^a mg/L
Apical Side 75 min (Caco-2 cell monolayer; [4]): 0.18 ± 0.01 ^b mg/L
Apical Side 90 min (Caco-2 cell monolayer; [4]): 0.14 ± 0.01 ^c mg/L
Apical Side 115 min (Caco-2 cell monolayer; [4]): 0.10 ± 0.00 ^d mg/L
Apical Side 180 min (Caco-2 cell monolayer; [4]): 0.08 ± 0.00 ^c mg/L
Apical Side 0 min (Caco-2 cell monolayer; [5]): 0.61 ± 0.01 ^a mg/L
Apical Side 75 min (Caco-2 cell monolayer; [5]): 0.52 ± 0.01 ^b mg/L
Apical Side 90 min (Caco-2 cell monolayer; [5]): 0.47 ± 0.01 ^c mg/L
Apical Side 115 min (Caco-2 cell monolayer; [5]): 0.41 ± 0.01 ^d mg/L
Apical Side 180 min (Caco-2 cell monolayer; [5]): 0.37 ± 0.01 ^c mg/L
detection at the acceptor side (Caco-2 cell monolayer; [6]): not detected
TE (%) transport efficiency (Caco-2 cell monolayer; BA experiment, S1 (15 mg/mL GSE)): 4.1 ± 0.1%
TE (%) transport efficiency (Caco-2 cell monolayer; [7]): 3.6 ± 0.1%
Apical Side 75 min (Caco-2 cell monolayer; [8]): 0.009 ± 0.001 ^b mg/L
Apical Side 90 min (Caco-2 cell monolayer; [8]): 0.010 ± 0.001 ^b,c mg/L
Apical Side 115 min (Caco-2 cell monolayer; [8]): 0.011 ± 0.001 ^c mg/L
Apical Side 180 min (Caco-2 cell monolayer; [8]): 0.011 ± 0.001 ^c mg/L
Apical Side 75 min (Caco-2 cell monolayer; [9]): 0.013 ± 0.001 ^b mg/L
Apical Side 90 min (Caco-2 cell monolayer; [9]): 0.013 ± 0.001 ^b,c mg/L
Apical Side 115 min (Caco-2 cell monolayer; [9]): 0.014 ± 0.001 ^c,d mg/L
Apical Side 180 min (Caco-2 cell monolayer; [9]): 0.015 ± 0.001 ^d mg/L
Basolateral Side 0 min (Caco-2 cell monolayer; [10]): 0.28 ± 0.02 ^a mg/L
Basolateral Side 75 min (Caco-2 cell monolayer; [10]): 0.24 ± 0.02 ^b mg/L
Basolateral Side 90 min (Caco-2 cell monolayer; [10]): 0.21 ± 0.02 ^c mg/L
Basolateral Side 115 min (Caco-2 cell monolayer; [10]): 0.18 ± 0.01 ^d mg/L
Basolateral Side 180 min (Caco-2 cell monolayer; [10]): 0.15 ± 0.01 ^c mg/L
Basolateral Side 0 min (Caco-2 cell monolayer; [11]): 0.41 ± 0.03 ^a mg/L
Basolateral Side 75 min (Caco-2 cell monolayer; [11]): 0.38 ± 0.03 ^a,b mg/L
Basolateral Side 90 min (Caco-2 cell monolayer; [11]): 0.36 ± 0.03 ^a,b,c mg/L
Basolateral Side 115 min (Caco-2 cell monolayer; [11]): 0.34 ± 0.03 ^b,c mg/L
Basolateral Side 180 min (Caco-2 cell monolayer; [11]): 0.32 ± 0.03 ^c mg/L
detection at the acceptor side (Caco-2 cell monolayer; BA experiments, apical side): detected; also recorded: quantified
